# Laboratory results: article PMC5572114, “Guanidine N-methylation by BlsL Is Dependent on Acylation of Beta-amine Arginine in the Biosynthesis of Blasticidin S” (Frontiers in Microbiology, 2017)
# Molecular target: T1, BlsL (Streptomyces griseochromogenes, UniProt Q841K2)
# T1 construct: gene J2Z21_009042; full length, His-tagged, pET28a NdeI/EcoRI, E. coli BL21(DE3); gene from cluster plasmid pJTU1780; primers encode N-terminus MEQSTGA, C-terminus CFYKD
# Experiment: SAM released from boiled purified BlsL; HPLC and MS/MS
# Assay type: binding
# Details: co-purified endogenous ligand; methyl donor
# T1 sequence (Q841K2 1-213): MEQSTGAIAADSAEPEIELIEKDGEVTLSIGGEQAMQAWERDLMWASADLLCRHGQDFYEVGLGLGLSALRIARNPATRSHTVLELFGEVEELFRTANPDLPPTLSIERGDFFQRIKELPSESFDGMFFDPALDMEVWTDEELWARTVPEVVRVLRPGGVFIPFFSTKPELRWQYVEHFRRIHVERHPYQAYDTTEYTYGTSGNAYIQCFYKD
compound,measurement,value
C[S+](CC[C@H](N)C(=O)O)C[C@H]1O[C@@H](n2cnc3c(N)ncnc32)[C@H](O)[C@@H]1O (stereo partly shown) [SAM],SAM released from boiled purified BlsL; HPLC and MS/MS,Association of SAM with BlsL was confirmed by HPLC as well as MS/MS fragmentation
